Values of other authors as cited in article PMC9164236 (ACS Organic & Inorganic Au, 2022).

SMILES: CC[C@@H](C(=O)[C@@H](C)[C@@H](O)[C@H](C)[C@@H]1O[C@@H]([C@@H](CC)C(=O)O)CC[C@@H]1C)[C@H]1O[C@]2(C=C[C@@H](O)[C@]3(CC[C@@](C)([C@H]4CC[C@](O)(CC)[C@H](C)O4)O3)O2)[C@H](C)C[C@@H]1C [Sal, Salinomycin]
- Stability in the presence of iron(III) chloride over time: degrade
- Reduction of the proportion of CSCs relative to paclitaxel (breast CSCs): > 100 fold
